Data on 1 molecule can be found in patent US20200223848A1, “DEGRADATION AGENT USING AUTOPHAGIC MECHANISM OF DAMAGED MITOCHONDRIA” (TOHOKU UNIVERSITY, priority 2017, published 2020).

Holding throughout (type): cell-based
One test concerns HeLa cells. The test is described as follows: Cytoprotective effect against mitochondrial injury induced by uncoupler CCCP (Hoechst33342 nuclear staining, DNA fragmentation, cell viability). The source says:
Assessment Method for Cytoprotective Effect of Compound of Example 3, (R)-2-Acetylamino-3-[2-amino-9-(4-fluoro-benzyl)-6-oxo-6,9-dihydro-1H-purin-8-ylsulfanyl]-N-{3-[2-(2-{3-[2-oxo-2-(2-phenyl-1H-indol-3-yl)-acetylamino]-propoxy}-ethoxy)-ethoxy]-propyl}-propionamide (Indole-FBn), Against Mitochondrial Injury, and Confirmation of Inhibition of Cytoprotective Effect with Autophagy Inhibitor (Bafilomycin A1: Baf A1)
Cell Viability under Condition of Treating Cells with Indole-FBn and CCCP (Test Group):
HeLa cells seeded in Dulbecco's Modified Eagle Medium (DMEM) in a 96-well plate at 30,000 cells/well were incubated under the conditions of 37° C./5% CO2 overnight. […]
Subsequently, the uncoupler CCCP was added at a final concentration of 10 μM, followed by further incubation for 2 hours to induce mitochondrial injury. Cells in each of which DNA fragmentation was found in the nucleus were judged to be dead cells, and cell viability was calculated by the following equation. […]
HeLa cells seeded in Dulbecco's Modified Eagle Medium (DMEM) in a 96-well plate at 30,000 cells/well were incubated under the conditions of 37° C./5% CO2 for 1 day, and then subjected to nuclear staining by Hoechst33342 staining. […] Cells in each of which DNA fragmentation was found in the nucleus were judged to be dead cells, and cell viability was calculated. […]

The test system of test [1] is HeLa cells stably expressing EmGFP-HaloTag-Omp25. The test is described as follows: Living cell imaging of degradation of injured mitochondria (EmGFP-HaloTag-Omp25 green and MitoTracker Red CMXRos red fluorescence). How it is done:
HeLa cells cultured in Dulbecco's Modified Eagle Medium (DMEM) were transfected with the plasmid pEmGFP-HaloTag-Omp25 containing a gene sequence encoding the EmGFP-HaloTag-Omp25 fusion protein localized on the mitochondrial outer membrane, and were allowed to stably express the protein. As a result, mitochondria in the cells were able to be observed using green fluorescence as an indicator.
A red fluorescent dye MitoTracker Red CMXRos (Thermo Fisher Scientific, M7513) was added thereto, followed by incubation for 30 minutes to stain mitochondria. At this stage, the mitochondria in the cells had been stained in two colors by EmGFP-HaloTag-Omp25 and MitoTracker Red CMXRos. Subsequently, MitoTracker Red CMXRos in the medium was removed by medium exchange. Mitochondria to be biosynthesized after this operation can only be detected with green fluorescence, and are not to be detected with red fluorescence. This difference was utilized to observe the degradation process of mitochondria by living cell imaging.
The cells were divided into two groups. Indole-FBn was added to an experimental group at a final concentration of […] was not added to a control group. In order to observe living cells at a fixed point for a long period of time, a culture vessel was fixed to a stage-top incubator (37° C., 5% CO2) mounted on a fluorescence microscope (KEYENCE, BX9000), and all the subsequent operations were performed on the microscope. […]
The signals of EmGFP-HaloTag-Omp25 and MitoTracker Red CMXRos at the time of the addition of Indole-FBn (−10 h), the time of the addition of CCCP (0 h), 2 hours after the addition of CCCP (+2 h), […] after the addition of CCCP (+8 h), and 16 hours after the addition of CCCP (+16 h) are shown in FIG. 6 and FIG. 7. In the graphs, the intensities of the signals of EmGFP-HaloTag-Omp25 (green fluorescence) and MitoTracker Red CMXRos (red fluorescence) in the photographs shown in FIG. 6 are shown as relative values with the respective intensities at −10 h being defined as 1. […]

The subject of the next test is Detroit532 cells. Put plainly: JC-1 staining of mitochondrial membrane potential. Particulars: Down syndrome patient foreskin-derived fibroblasts; 10 μM, incubation for 3 days. How it is done: Detroit532 cells, which were Down syndrome patient foreskin-derived fibroblasts, were cultured in Eagle's Minimum Essential Medium. The cells were divided into two groups. A compound (Indole-FBn) was added to an experimental group at a final concentration of 10 μM, and was not added to a control group, followed by incubation for 3 days (37° C., 5% CO2). The cells of each group were each stained with JC-1 (abcam, 113850).
The JC-1 dye accumulates in mitochondria having a normal membrane potential to emit red fluorescence. Meanwhile, its localization is lost from mitochondria having an abnormal membrane potential and green fluorescence is emitted. That is, in a JC-1 staining image, a lower “green/red fluorescence intensity ratio” means that the membrane potential of mitochondria is kept more normal. Staining images were analyzed with ImageJ (National Institute of Health), and the “green/red fluorescence intensity ratio” is shown as a graph. Error bars represent standard deviations obtained from data from three independent experiments.

As to `CC(=O)N[C@@H](CSc1nc2c(=O)[nH]c(N)nc2n1Cc1ccc(F)cc1)C(=O)NCCCOCCOCCOCCCNC(=O)C(=O)c1c(-c2ccccc2)[nH]c2ccccc12` [Indole-FBn, (R)-2-Acetylamino-3-[2-amino-9-(4-fluoro-benzyl)-6-oxo-6,9-dihydro-1H-purin-8-ylsulfanyl]-N-{3-[2-(2-{3-[2-oxo-2-(2-phenyl-1H-indol-3-yl)-acetylamino]-propoxy}-ethoxy)-ethoxy]-propyl}-propionamide], the “cytoprotective effect under the CCCP-treated condition in coexistence of autophagy inhibitor Baf A1” value in the test on HeLa cells (Baf A1 200 nM added 2 hours before Indole-FBn treatment, CCCP 10 μM) was “significantly inhibited”. In the test on HeLa cells (Indole-FBn 1 μM for 10 hours, then CCCP 10 μM for 2 hours, versus non-Indole-FBn-treated control), the “cell death due to mitochondrial injury (cell viability)” value is reported as “significantly suppressed cell death”. For the same molecule, the “green and red signal intensities after the addition of CCCP” value in test [1] (Indole-FBn-treated group, 2 h, 8 h after CCCP, relative to intensities at -10 h defined as 1) is given as “reduced”. Further, the “removal of injured mitochondria and production of new mitochondria” value in test [1] (living cell imaging experiment, overall conclusion) was “promoted both the removal of injured mitochondria and the production of new mitochondria”. Besides, the “green fluorescence intensity, comparison of 8 hours and 16 hours after the addition of CCCP” value in test [1] (only in the Indole-FBn-treated group, indicates production of new mitochondria) was “increased”. The “quality of mitochondria (JC-1 green/red fluorescence intensity ratio, membrane potential)” value with Detroit532 cells is “significantly improved”.
